Values after ≈ are worked out from the molar mass of the structure shown. Active and inactive are the calls of the source. The rule behind the calls is not given here.
Legend:
Duck hepatitis B virus [1] = test: Antiviral activity against Duck hepatitis B virus infected in pekin duck primary hepatocytes assessed as inhibition of viral replication at 10 ug/mL; type: functional; conditions: Hepatocyte, in Anas platyrhynchos
Duck hepatitis B virus [2] = test: Antiviral activity against Duck hepatitis B virus infected in pekin duck primary hepatocytes assessed as inhibition of viral replication; type: functional, organism-based; conditions: Hepatocyte
Hepatitis B virus [3] = test: Antiviral activity against Hepatitis B virus infected in human HepG2(2.2.15) cells assessed as inhibition of viral replication at 10 ug/mL; type: functional
Hepatitis B virus [4] = test: Antiviral activity against Hepatitis B virus infected in human HepG2(2.2.15) cells assessed as inhibition of viral replication; type: functional, organism-based
Hepatitis C virus [5] = test: Antiviral activity against Hepatitis C virus subtype 1a infected in human HuH7 cells at 20 ug/mL after 2 days by q-PCR analysis; type: functional, Hepacivirus hominis; conditions: Huh-7, 48 h
[6] = Cytotoxicity against human HuH7 cells after 2 days by XTT assay; type: cell-based, Huh-7
Hepatitis C virus [7] = test: Antiviral activity against Hepatitis C virus subtype 1a infected in human HuH7 cells after 2 days by q-PCR analysis; type: functional, organism-based, Hepacivirus hominis; conditions: Huh-7, 48 h
Hepatitis C virus [8] = test: Antiviral activity against Hepatitis C virus subtype 1a infected in human HuH7 cells at 10 ug/mL after 2 days by q-PCR analysis; type: functional, Hepacivirus hominis; conditions: Huh-7, 48 h
Hepatitis C virus [9] = test: Antiviral activity against Hepatitis C virus subtype 1a infected in human HuH7 cells at 5 ug/mL after 2 days by q-PCR analysis; type: functional, Hepacivirus hominis; conditions: Huh-7, 48 h
Hepatitis C virus [10] = test: Potentiation of ribavirin antiviral activity against Hepatitis C virus subtype 1a infected in human HuH7 cells at 5 ug/mL after 2 days by q-PCR analysis; type: functional, organism-based; conditions: Hepacivirus hominis, Huh-7
Hepatitis C virus [11] = test: Ratio of ribavirin EC50 to compound EC50 for Hepatitis C virus subtype 1a; type: functional, Hepacivirus hominis
Duck hepatitis B virus [12] = test: Antiviral activity against Duck hepatitis B virus infected in pekin duck primary hepatocytes assessed as inhibition of viral replication at 0.5 to 1 ug/mL; type: functional, Hepatocyte
Hepatitis B virus [13] = test: Antiviral activity against Hepatitis B virus infected in human HepG2(2.2.15) cells assessed as inhibition of viral replication at 0.5 to 1 ug/mL; type: functional
Hepatitis C virus [14] = test: Antiviral activity against Hepatitis C virus subtype 1a infected in human HuH7 cells at 20 to 50 ug/mL after 2 days by q-PCR analysis; type: functional, Hepacivirus hominis, Huh-7

Structure (SMILES): N=c1ccn([C@H]2CC[C@@H](C(=O)O)O2)c(=O)[nH]1
- inhibition at 10 µg/mL (Duck hepatitis B virus [1]): 80%
- EC50 (Duck hepatitis B virus [2]): 0.5 µg/mL (≈ 2.22 µM)
- inhibition at 10 µg/mL (Hepatitis B virus [3]): 60%
- EC50 (Hepatitis B virus [4]): 5 µg/mL (≈ 22.2 µM)
- inhibition at 20 µg/mL (Hepatitis C virus [5]): 0%
- CC50 at 48 h [6]: > 250 µg/mL

Structure (SMILES): [N-]=[N+]=N[C@H]1C[C@H](n2ccc(=O)[nH]c2=O)O[C@@H]1C(=O)O
- inhibition at 10 µg/mL (Duck hepatitis B virus [1]): 62%
- EC50 (Duck hepatitis B virus [2]): 5 µg/mL (≈ 18.7 µM)
- inhibition at 10 µg/mL (Hepatitis B virus [3]): 50%
- EC50 (Hepatitis B virus [4]): 10 µg/mL (≈ 37.4 µM)
- inhibition at 20 µg/mL (Hepatitis C virus [5]): 40%
- CC50 at 48 h [6]: > 250 µg/mL
- EC50 (Hepatitis C virus [7]): > 20 µg/mL

Structure (SMILES): COC(=O)[C@@H]1CC[C@H](n2ccc(N)nc2=O)O1
- inhibition at 10 µg/mL (Duck hepatitis B virus [1]): 90%
- EC50 (Duck hepatitis B virus [2]): 0.5 µg/mL (≈ 2.09 µM)
- inhibition at 10 µg/mL (Hepatitis B virus [3]): 63%
- EC50 (Hepatitis B virus [4]): 5 µg/mL (≈ 20.9 µM)
- inhibition at 10 µg/mL (Hepatitis C virus [8]): 50%
- inhibition at 5 µg/mL (Hepatitis C virus [9]): 38%
- Activity (Hepatitis C virus [10]): Active
- CC50 at 48 h [6]: > 250 µg/mL
- Ratio EC50 (Hepatitis C virus [11]): >2
- EC50 (Hepatitis C virus [7]): 10 µg/mL (≈ 41.8 µM)

Structure (SMILES): CC(=O)O[C@H]1C[C@H](n2cc(F)c(=O)[nH]c2=O)O[C@@H]1C(=O)O
- inhibition at 10 µg/mL (Duck hepatitis B virus [1]): 0%
- inhibition at 10 µg/mL (Hepatitis B virus [3]): 0%
- inhibition at 20 µg/mL (Hepatitis C virus [5]): 0%
- CC50 at 48 h [6]: > 250 µg/mL

Structure (SMILES): Nc1ccn([C@@H]2CS[C@H](CO)O2)c(=O)n1 [LAMIVUDINE]
- inhibition (INH) (Duck hepatitis B virus [12]): 96%
- inhibition (INH) (Hepatitis B virus [13]): 88%

Structure (SMILES): O=C(O)[C@@H]1CC[C@H](n2ccc(=O)[nH]c2=O)O1
- inhibition at 10 µg/mL (Duck hepatitis B virus [1]): 0%
- inhibition at 10 µg/mL (Hepatitis B virus [3]): 0%
- inhibition at 20 µg/mL (Hepatitis C virus [5]): 0%
- CC50 at 48 h [6]: > 250 µg/mL

Structure (SMILES): Cc1cn([C@H]2C=C[C@@H](C(=O)O)O2)c(=O)[nH]c1=O
- inhibition at 10 µg/mL (Duck hepatitis B virus [1]): 63%
- EC50 (Duck hepatitis B virus [2]): 2.5 µg/mL (≈ 10.5 µM)
- inhibition at 10 µg/mL (Hepatitis B virus [3]): 58%
- EC50 (Hepatitis B virus [4]): 5 µg/mL (≈ 21 µM)
- inhibition at 20 µg/mL (Hepatitis C virus [5]): 0%
- CC50 at 48 h [6]: > 250 µg/mL

Structure (SMILES): Cc1cn([C@H]2CC=C(C(=O)O)O2)c(=O)[nH]c1=O
- inhibition at 10 µg/mL (Duck hepatitis B virus [1]): 65%
- EC50 (Duck hepatitis B virus [2]): 2.5 µg/mL (≈ 10.5 µM)
- inhibition at 10 µg/mL (Hepatitis B virus [3]): 61%
- EC50 (Hepatitis B virus [4]): 5 µg/mL (≈ 21 µM)
- inhibition at 20 µg/mL (Hepatitis C virus [5]): 50%
- CC50 at 48 h [6]: > 250 µg/mL
- EC50 (Hepatitis C virus [7]): 20 µg/mL (≈ 84 µM)

Structure (SMILES): Cc1cn([C@H]2C[C@H](N=[N+]=[N-])[C@@H](C(=O)O)O2)c(=O)[nH]c1=O
- inhibition at 10 µg/mL (Duck hepatitis B virus [1]): 55%
- EC50 (Duck hepatitis B virus [2]): 5 µg/mL (≈ 17.8 µM)
- inhibition at 10 µg/mL (Hepatitis B virus [3]): 50%
- EC50 (Hepatitis B virus [4]): 10 µg/mL (≈ 35.6 µM)
- inhibition at 20 µg/mL (Hepatitis C virus [5]): 30%
- CC50 at 48 h [6]: > 250 µg/mL

Structure (SMILES): NC(=O)c1ncn([C@@H]2O[C@H](CO)[C@@H](O)[C@H]2O)n1 [RIBAVIRIN]
- inhibition (INH) (Hepatitis C virus [14]): 50%
- inhibition at 10 µg/mL (Hepatitis C virus [8]): 35%
- EC50 (Hepatitis C virus [7]): 20 µg/mL (≈ 81.9 µM)

From ChEMBL document CHEMBL2150904, “A new class of pyrimidine nucleosides: inhibitors of hepatitis B and C viruses” (Bioorg Med Chem Lett, 2012)
